Results taken from patent US20140323500A1, “NADPH OXIDASE 4 INHIBITORS AND USE THEREOF” (GENKYOTEX SA, priority 2011, published 2014).
Read-outs that look alike come from different tables or passages of the source.

Legend:
murine M-CSF-primed BMNC = assay: RANKL-induced increase in cytosolic Ca2+ by Fura2 fluorescence; type: cell-based, mice; conditions: 20 μmol/L co-applied with RANKL during stimulation (30 hours); wildtype cells; FIG. 4B
Source text: A: comparison of cells from wildtype and Nox4−/− mice; B: Effect of a Nox4 inhibitor (Compound (1) or solvent on calcium concentrations in wildtype cells; n≧3; *p<0.05.
Epiphyseal ends of the femora and tibiae were cut off and the bone marrow was flushed out with DMEM containing 10% FCS. Bone marrow stromal cells were collected and plated at a density of 2×10^6 cells/cm^2 in α-MEM containing 10% FCS and 1% penicillin/streptomycin. Following attachment, medium was replaced by basal medium supplemented with 25 ng/ml M-CSF (R&D Systems) for 2 days. Thereafter, cells were cultured for additional 6 days in differentiation medium containing 25 ng/ml M-CSF and 50 ng/ml RANKL (R&D Systems). TRAP staining was performed using the leukocyte acid phosphatase kit (Sigma) following the manufactures instructions according to Mukherjee et al., 2008, supra.
The role of Nox4 for the RANKL-induced increase in cytosolic Ca^2+ was investigated by FURA2 fluorescence as described below. […]
Cells were grown on 96 well plates and differentiated with or without RANKL as described above. […] After another washing step intracellular free Fura-2 and Ca^2+-bound Fura-2 was measured at the wavelength 340 and 380 nm by the ELISA Reader EnVision (PerkinElmer) in 100 μl HEPES Tyrode. […] Eventually the intracellular Ca^2+ was calculated as described by Grynkiewicz et al., 1985, J. Biol. Chem., 260(6):3440-3450.

[1] = system: xanthine/xanthine oxidase; assay: Antioxidant activity in an assay of Example 1 (ROS production by xanthine/xanthine oxidase, Amplex Red); type: biochemical; conditions: as measured in an assay of Example 1
Procedure: Reactive Oxygen Species (ROS) production by membranes expressing either human Nox1, or human Nox2 or human Nox4 or human Nox5 or by xanthine/xanthine oxidase were measured using the Amplex Red (AR) method following a slightly modified version of the manufacturer's instruction manual (Invitrogen). Briefly, membranes or xanthine were incubated in PBS with Amplex Red, Horse Radish Peroxidase (HRP) and appropriated co-factors. ROS production was induced by addition of NADPH to NOX-expressing membrane or by addition of xanthine to xanthine oxidase. Non-specific signal was measured in the absence of membranes or in the absence of xanthine.
Antagonist activity of compounds was measured in the presence of increasing concentrations ranging from 1 nM to 100 μM. After an incubation of 20 min in a plate shaker and incubator (Titramax 1000, VWR) at 37° C. with weak agitation (300 rpm), ROS levels were measured for 10 min in a BMG Fluostar microplate reader with excitation and emission wavelengths of 544 nm and 590 nm respectively.

human Nox4 = biological target: T1, human Nox4 (Homo sapiens, UniProt Q9NPH5); assay: ROS production by membranes expressing human Nox4, cell-free Amplex Red assay; type: biochemical; conditions: for Ki: read-out: Ki hNox4
T1 construct: expressed in transfected cells; host or cells: T-REx-293 (hNOX4 T-REx-293), tetracycline-induced; membrane fraction
T1 sequence (Q9NPH5 1-578): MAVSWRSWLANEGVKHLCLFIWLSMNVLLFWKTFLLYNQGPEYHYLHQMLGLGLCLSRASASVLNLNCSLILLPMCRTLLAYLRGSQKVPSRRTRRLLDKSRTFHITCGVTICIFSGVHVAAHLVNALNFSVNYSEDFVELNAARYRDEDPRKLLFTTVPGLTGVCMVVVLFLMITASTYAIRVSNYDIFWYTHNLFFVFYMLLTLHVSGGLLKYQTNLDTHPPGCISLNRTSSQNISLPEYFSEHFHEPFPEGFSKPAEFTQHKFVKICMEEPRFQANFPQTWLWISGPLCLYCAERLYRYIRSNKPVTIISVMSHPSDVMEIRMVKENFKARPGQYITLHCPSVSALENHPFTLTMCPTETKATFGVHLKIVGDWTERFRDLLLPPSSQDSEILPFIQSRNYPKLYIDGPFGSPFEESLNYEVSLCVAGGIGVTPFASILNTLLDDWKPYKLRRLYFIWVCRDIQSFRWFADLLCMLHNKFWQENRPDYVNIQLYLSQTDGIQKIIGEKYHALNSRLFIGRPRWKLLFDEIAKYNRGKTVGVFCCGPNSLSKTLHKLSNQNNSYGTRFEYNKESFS
T1 sequence (P13498 2-195 partner limits assumed): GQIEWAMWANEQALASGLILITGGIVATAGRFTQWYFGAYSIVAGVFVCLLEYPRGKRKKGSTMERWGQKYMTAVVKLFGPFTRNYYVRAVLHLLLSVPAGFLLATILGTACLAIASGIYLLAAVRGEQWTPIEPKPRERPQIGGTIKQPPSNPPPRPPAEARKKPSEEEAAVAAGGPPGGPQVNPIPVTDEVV
Procedure, shortened: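 Membranes from tetracycline-induced (1 μg/ml, 24 h) T-REx cells overexpressing human Nox4, incubated in PBS with Amplex Red, HRP and co-factors; NADPH starts ROS production. Compounds 1 nM-100 μM, 20 min at 37° C.; fluorescence (ex 544/em 590 nm) over 10 min; Ki via Cheng-Prusoff, ≥3 experiments in triplicate.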

human Nox2 = biological target: T2, human Nox2 (Homo sapiens, UniProt P04839); assay: ROS production by membranes expressing human Nox2, cell-free Amplex Red assay; type: biochemical; conditions: read-out: Ki hNox2
T2 construct: host or cells: T-REx-CHO (hNOX2 T-REx-CHO), tetracycline-induced; membrane fraction
T2 sequence (P04839 2-570 limits assumed): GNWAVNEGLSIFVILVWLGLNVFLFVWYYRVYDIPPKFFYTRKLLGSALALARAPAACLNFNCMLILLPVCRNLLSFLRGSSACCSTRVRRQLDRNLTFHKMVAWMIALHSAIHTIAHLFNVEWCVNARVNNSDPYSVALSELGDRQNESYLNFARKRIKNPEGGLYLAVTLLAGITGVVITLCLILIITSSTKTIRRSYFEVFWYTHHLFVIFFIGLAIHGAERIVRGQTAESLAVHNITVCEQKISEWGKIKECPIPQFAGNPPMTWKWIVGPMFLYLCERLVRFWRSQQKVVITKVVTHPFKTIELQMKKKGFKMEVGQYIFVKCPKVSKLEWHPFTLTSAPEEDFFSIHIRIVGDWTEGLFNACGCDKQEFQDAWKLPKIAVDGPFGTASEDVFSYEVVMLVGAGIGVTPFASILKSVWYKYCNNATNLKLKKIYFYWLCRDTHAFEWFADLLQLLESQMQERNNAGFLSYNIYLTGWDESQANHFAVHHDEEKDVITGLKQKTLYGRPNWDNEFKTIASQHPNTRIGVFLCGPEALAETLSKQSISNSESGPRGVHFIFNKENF
T2 sequence (P13498 2-195 partner limits assumed): T1 sequence (P13498 2-195 partner limits assumed)
Procedure, shortened: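 Membranes from tetracycline-induced (1 μg/ml, 24 h) T-REx-CHO cells stably expressing hNox2 with p22 and cofactors, incubated in PBS with Amplex Red, HRP and cofactors; NADPH starts ROS production. Compounds 1 nM–100 μM, 20 min at 37 °C, then fluorescence (544/590 nm) read for 10 min; Ki by Cheng-Prusoff.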

[2] = system: female mice subjected to ovariectomy; assay: Ovariectomy-induced osteoporosis (bone loss) in mice; type: in vivo; conditions: distal femur 6 weeks after ovariectomy, compound 1 at 20 and 60 mg/kg, pamidronat 10 mg/kg once a week, microCT
Procedure: BMD of the left femur was measured by peripheral quantitative computed tomography (QCT) using an XCT Research QCT machine (Stratec Medizintechnik, Pforzheim, Germany). One slice (0.2 mm thick) in the mid-diaphysis of the femur and 3 slices in the distal femoral metaphysis located 1.5, 2, and 2.5 mm proximal to the articular surface of the knee joint were measured. BMD values of the distal femoral metaphysic were calculated as the mean of 3 slices. A voxel size of 0.070 mm and a threshold of 710 mg/cm^3 were used for calculation of BMD as described in Hofbauer et al., 2009, Arthritis Rheum., 60(5):1427-1437.
The control group received daily gavages by the solvent.
To study the latter effect, female mice were subjected to ovariectomy to induce osteoporosis and the effect of pharmacological inhibition of Nox4 with a Nox4 inhibitor as well as acute genetic knockout of the protein was studied. For this, mice were subjected to ovariectomy 8 weeks after birth and treatment at 60 mg/kg with a Nox4 inhibitor of the invention was started 2 days after the operation and continued throughout the study (6 weeks).
3, Hamburg was used which completely blocks osteoclast activity. […] For this, bones were scanned with a skyscan 1176 and bone density was analysed with the integrated software using two phantoms with 0.25 g/cm^3 and 0.75 g/cm^3 as reference. A 2 mm portion of the femur from the tibia plateau was analysed for total and trabecular bone density by the software provided by the manufacturer of the machine. […] For this method, the femurs were loaded to failure by 3-point bending tests using a Zwick Z020/TN2A materials testing machine (Zwick, Ulm, Germany) with a 1 kN force detector, and a force resolution of 0.01N. The distance between the lower supports for the bending tests was 5 mm. Crosshead speed during testing was 0.2 mm/minute for all measurements. From the force-displacement data, ultimate force (Fmax; in N) was calculated.

[3] = cell-free membranes, Amplex Red, Cheng-Prusoff, average of at least three experiments in triplicate

Sequence of xanthine/xanthine oxidase (P47989 whole entry): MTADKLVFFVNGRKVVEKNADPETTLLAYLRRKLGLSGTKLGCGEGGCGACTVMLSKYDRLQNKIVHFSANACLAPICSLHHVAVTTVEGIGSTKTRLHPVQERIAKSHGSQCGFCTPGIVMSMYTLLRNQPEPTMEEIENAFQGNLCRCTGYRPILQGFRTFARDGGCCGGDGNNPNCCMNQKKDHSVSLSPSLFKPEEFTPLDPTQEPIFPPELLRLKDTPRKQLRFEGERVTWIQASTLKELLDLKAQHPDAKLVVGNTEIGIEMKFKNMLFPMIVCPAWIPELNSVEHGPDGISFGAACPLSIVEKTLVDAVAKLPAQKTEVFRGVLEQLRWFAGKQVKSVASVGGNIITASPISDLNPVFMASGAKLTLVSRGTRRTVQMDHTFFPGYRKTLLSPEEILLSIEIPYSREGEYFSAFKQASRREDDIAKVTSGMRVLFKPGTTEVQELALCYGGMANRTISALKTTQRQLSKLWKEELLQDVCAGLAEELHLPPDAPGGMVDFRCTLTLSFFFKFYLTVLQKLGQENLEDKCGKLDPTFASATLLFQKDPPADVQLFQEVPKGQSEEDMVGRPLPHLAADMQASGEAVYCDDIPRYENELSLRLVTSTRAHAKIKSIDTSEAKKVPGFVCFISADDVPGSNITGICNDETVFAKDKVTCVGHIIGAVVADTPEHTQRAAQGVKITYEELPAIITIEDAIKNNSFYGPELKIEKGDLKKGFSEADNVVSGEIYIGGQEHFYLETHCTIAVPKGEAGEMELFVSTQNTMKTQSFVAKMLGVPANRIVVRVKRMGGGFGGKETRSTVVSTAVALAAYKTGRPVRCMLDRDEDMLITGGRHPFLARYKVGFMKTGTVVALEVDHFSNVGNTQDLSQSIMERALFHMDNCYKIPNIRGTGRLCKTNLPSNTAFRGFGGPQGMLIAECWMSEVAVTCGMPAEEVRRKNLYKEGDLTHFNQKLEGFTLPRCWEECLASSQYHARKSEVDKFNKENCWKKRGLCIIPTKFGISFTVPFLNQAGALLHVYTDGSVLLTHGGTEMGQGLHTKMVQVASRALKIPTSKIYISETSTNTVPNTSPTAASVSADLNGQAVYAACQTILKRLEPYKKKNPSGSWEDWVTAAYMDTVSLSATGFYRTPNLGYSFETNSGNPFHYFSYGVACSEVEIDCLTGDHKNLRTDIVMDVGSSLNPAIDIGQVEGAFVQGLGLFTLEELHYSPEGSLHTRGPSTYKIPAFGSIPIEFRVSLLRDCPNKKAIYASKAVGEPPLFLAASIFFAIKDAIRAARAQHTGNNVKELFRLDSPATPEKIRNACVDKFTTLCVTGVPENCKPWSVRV

Structure (SMILES): CN(C)c1cccc(-c2c3c(=O)n(-c4ccccc4Cl)[nH]c3cc(=O)n2C)c1 [2-(2-chlorophenyl)-4-[3-(dimethylamino)phenyl]-5-methyl-1H-pyrazolo[4,3-c]pyridine-3,6(2H,5H)-dione]
- RANKL induced increase in cytosolic Ca2+ (murine M-CSF-primed BMNC): prevented the RANKL induced increase in cytosolic Ca^2+
- antioxidant activity [1]: no antioxidant activity
- IC50 for Nox4 relative to Nox2 (human Nox4; Nox4 versus Nox2, assay of Example 1): approximately 10 fold

Structure (SMILES): O=c1c2c(-c3cc(Cl)cc(Cl)c3)n(Cc3ccncc3)c(=O)cc2[nH]n1-c1ccccc1Cl [(37), 2-(2-chlorophenyl)-4-(3,5-dichlorophenyl)-5-(pyridin-4-ylmethyl)-1H-pyrazolo[4,3-c]pyridine-3,6(2H,5H)-dione]
- Ki (human Nox2; [3]): 950 nM
- Ki (human Nox4; [3]): 128 nM

Structure (SMILES): CN(C)c1cccc(-c2c3c(=O)n(-c4ccccc4Cl)[nH]c3cc(=O)n2Cc2cccnc2)c1 [(39), 2-(2-chlorophenyl)-4-[3-(dimethylamino)phenyl]-5-(pyridin-3-ylmethyl)-1H-pyrazolo[4,3-c]pyridine-3,6(2H,5H)-dione]
- Ki (human Nox2; [3]): 1500 nM
- Ki (human Nox4; [3]): 149 nM

Structure (SMILES): O=c1c2c(-c3cc(F)ccc3F)n(Cc3cccnc3)c(=O)cc2[nH]n1-c1ccccc1Cl [(42), 2-(2-chlorophenyl)-4-(2,5-difluorophenyl)-5-(pyridin-3-ylmethyl)-1H-pyrazolo[4,3-c]pyridine-3,6(2H,5H)-dione]
- Ki (human Nox2; [3]): 540 nM
- Ki (human Nox4; [3]): 159 nM

Structure (SMILES): CCC(C)(C)C(=O)O[C@H]1C[C@@H](C)C=C2C=C[C@H](C)[C@H](CC[C@@H]3C[C@@H](O)CC(=O)O3)[C@H]21 [Simvastatin, reference compound]
- Ki (human Nox2; Simvastatin comparison): > 162000 nM
- Ki (human Nox4; Simvastatin comparison): > 133000 nM

Structure (SMILES): NCCC(O)(P(=O)(O)O)P(=O)(O)O [pamidronat, reference compound]
- absolute bone density (total) ([2]; FIG. 6A): increased absolute bone density
- absolute trabecular bone density ([2]; FIG. 6B): increased
- relative inhibition of ovarectomy-induced total bone loss ([2]; FIG. 6C): ~50%
- relative inhibition of trabecular bone loss ([2]; FIG. 6D): approximately 60%
